Measurements: patent publication US9085606B2, “Beta amino acid derivatives as integrin antagonists” (Saint Louis University, priority 2012, dated 2015)

Columns and labels:
[1] = target: T1, Recombinant human integrin αvβ5 (Homo sapiens, UniProt P06756+P18084); assay: Solid Phase Receptor Assay for αvβ5 Function; conditions: binding to vitronectin-coated plate; read-out: αvβ5 SPRA IC50
T1 construct: purchased R&D Systems 2528-AV
Procedure: Solid Phase Receptor Assay for αvβ5 Function.
(§1) Wells were washed 3 times with 150 μL TBS+ and 150 μL of blocking buffer (TBS+ with 1% bovine serum albumin, Sigma A7906) were added. The plate was incubated for 1 hr at 37° C. and then washed 3× with TBS+ buffer. […] Compounds were diluted 1:100 into the integrin solution and then 50 μL added to empty wells of the washed vitronectin-coated plate according to a standard template with each sample repeated in triplicate. After incubation for two hours at room temperature, the plate was washed 3× with 150 μL of TBS+ buffer. To each well, 50 μL of biotinylated anti-αv antibody (R&D Systems, BAF1219) at 0.5 μg/mL in TBS+/0.1% BSA at 0.5 μg/mL were added and the plate covered and incubated for 1 hr at room temperature. After washing the plate 3× with 150 μL of TBS+ buffer, 50 μL of streptavidin-conjugated horseradish peroxidase (R&D Systems DY998) diluted in TBS+ blocking buffer were added to the wells and the plate incubated for 20 min at room temperature. The plate was washed 3× with TBS+ buffer followed by 50 μL of TMB substrate (Sigma T4444) added to each well and the plate incubated for 20 min at room temperature. The reaction was optionally stopped with 25 μL of Stop Solution (Sigma S5689). Plates were read by colorimetric detection at 650 nm wavelength using a Tecan Safire II plate reader.

[2] = target: T2, Recombinant human integrin αvβ6 (Homo sapiens, UniProt P06756+P18564); assay: Solid Phase Receptor Assay for αvβ6 Function; conditions: binding to LAP-coated plate; read-out: αvβ6 SPRA IC50
T2 construct: purchased R&D Systems 3817-AV
T2 sequence (P06756 31-992 limits assumed): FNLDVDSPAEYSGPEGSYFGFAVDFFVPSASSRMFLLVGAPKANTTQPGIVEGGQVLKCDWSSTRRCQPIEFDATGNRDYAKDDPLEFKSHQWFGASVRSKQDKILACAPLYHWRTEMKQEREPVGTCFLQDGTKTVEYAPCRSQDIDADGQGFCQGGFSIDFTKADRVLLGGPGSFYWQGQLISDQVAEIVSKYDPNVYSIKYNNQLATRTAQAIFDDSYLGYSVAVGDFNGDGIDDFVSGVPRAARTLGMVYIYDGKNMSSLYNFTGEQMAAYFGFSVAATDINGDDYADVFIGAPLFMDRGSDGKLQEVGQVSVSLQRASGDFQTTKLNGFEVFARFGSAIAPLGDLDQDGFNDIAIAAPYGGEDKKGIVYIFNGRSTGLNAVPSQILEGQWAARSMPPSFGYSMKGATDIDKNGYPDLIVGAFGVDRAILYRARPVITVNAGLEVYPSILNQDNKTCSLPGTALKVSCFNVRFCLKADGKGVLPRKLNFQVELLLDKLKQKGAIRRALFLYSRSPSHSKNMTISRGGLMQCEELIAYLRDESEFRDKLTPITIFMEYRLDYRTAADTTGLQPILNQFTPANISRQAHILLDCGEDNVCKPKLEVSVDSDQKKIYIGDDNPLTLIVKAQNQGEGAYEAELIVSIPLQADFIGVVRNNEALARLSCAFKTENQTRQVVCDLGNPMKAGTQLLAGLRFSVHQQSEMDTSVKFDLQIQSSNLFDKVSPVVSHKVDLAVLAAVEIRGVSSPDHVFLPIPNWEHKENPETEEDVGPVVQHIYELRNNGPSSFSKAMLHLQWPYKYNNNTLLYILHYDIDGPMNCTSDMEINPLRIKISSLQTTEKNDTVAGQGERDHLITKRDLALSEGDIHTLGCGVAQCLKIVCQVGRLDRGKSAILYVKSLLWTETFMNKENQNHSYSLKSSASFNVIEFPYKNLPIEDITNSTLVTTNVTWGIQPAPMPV
T2 sequence (P18564 22-707 limits assumed): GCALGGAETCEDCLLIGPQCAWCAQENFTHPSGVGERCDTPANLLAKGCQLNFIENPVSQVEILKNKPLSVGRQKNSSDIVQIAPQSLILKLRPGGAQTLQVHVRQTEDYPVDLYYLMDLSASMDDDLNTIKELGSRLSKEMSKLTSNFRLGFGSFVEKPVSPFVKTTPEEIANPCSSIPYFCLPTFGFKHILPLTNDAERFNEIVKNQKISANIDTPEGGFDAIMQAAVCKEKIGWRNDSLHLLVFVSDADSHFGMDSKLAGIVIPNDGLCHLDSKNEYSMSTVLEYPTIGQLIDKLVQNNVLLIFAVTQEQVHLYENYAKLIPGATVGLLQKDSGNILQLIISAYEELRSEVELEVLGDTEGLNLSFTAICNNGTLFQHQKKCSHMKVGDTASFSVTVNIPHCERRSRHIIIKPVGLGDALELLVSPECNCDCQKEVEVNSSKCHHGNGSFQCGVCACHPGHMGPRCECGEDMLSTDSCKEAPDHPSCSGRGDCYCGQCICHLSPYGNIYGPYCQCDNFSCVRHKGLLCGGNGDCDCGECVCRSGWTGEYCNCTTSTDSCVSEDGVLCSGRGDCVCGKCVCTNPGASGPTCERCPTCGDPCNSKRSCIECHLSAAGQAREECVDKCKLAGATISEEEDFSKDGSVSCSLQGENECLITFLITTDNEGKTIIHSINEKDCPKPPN
Procedure: Solid Phase Receptor Assay for αvβ6 Function.
as §1, with “150 μL TBS+, and 150” for “150 μL TBS+ and 150”, “at 37° C., and then” for “at 37° C. and then”, “the washed LAP-coated plate according” for “the washed vitronectin-coated plate according”, “TBS+/0.1% BSA were added” for “TBS+/0.1% BSA at 0.5 μg/mL were added”, “the plate was covered and” for “the plate covered and”, “peroxidase (R&D Systems, DY998) diluted” for “peroxidase (R&D Systems DY998) diluted”

T1 sequence (P06756 31-992 limits assumed): as the sequence (P06756 31-992 limits assumed) above
T1 sequence (P18084 24-719 limits assumed): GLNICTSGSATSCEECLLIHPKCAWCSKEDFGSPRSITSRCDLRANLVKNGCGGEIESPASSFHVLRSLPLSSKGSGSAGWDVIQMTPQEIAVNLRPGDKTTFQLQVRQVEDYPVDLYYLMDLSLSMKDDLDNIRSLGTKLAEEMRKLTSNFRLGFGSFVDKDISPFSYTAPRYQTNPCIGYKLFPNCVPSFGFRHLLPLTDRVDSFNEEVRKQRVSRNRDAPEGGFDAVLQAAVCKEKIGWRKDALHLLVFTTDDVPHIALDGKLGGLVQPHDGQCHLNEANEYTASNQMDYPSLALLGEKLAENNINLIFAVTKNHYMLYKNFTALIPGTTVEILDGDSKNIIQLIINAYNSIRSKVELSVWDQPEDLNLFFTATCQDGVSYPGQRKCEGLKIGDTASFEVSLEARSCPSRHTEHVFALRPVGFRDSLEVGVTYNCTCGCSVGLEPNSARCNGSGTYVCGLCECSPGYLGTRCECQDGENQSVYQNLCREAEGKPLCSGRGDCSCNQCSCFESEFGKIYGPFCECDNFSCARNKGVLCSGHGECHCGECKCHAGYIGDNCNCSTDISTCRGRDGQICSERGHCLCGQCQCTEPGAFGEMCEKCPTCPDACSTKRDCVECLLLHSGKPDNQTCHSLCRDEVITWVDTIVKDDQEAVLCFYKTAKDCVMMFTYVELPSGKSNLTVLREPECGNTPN

SMILES | IC50 [1] [nM] | IC50 [2] [nM]
CC(C)(C#N)c1cc(Br)cc([C@H](CC(=O)O)NC(=O)CNC(=O)c2cc(O)cc(NC3=NCC(O)CN3)c2)c1 (stereo partly drawn) [Example 11, (3S)-3-(3-bromo-5-(2-cyanopropan-2-yl)phenyl)-3-(2-(3-hydroxy-5-((5-hydroxy-1,4,5,6-tetrahydropyrimidin-2-yl)amino)benzamido)acetamido)propanoic acid] | 0.7 | 0.5
CC(C)(O)c1cc(Cl)cc([C@H](CC(=O)O)NC(=O)CNC(=O)c2cc(O)cc(NC3=NCC(O)CN3)c2)c1 (stereo partly drawn) [Example 4, (3S)-3-(3-chloro-5-(2-hydroxypropan-2-yl)phenyl)-3-(2-(3-hydroxy-5-((5-hydroxy-1,4,5,6-tetrahydropyrimidin-2-yl)amino)benzamido)acetamido)propanoic acid] | 0.4 | 0.5
CC(C)(C)c1cc(Br)cc([C@H](CC(=O)O)NC(=O)CNC(=O)c2cccc(NC(=N)N)c2)c1 [Example 5, (S)-3-(3-bromo-5-(tert-butyl)phenyl)-3-(2-(3-guanidinobenzamido)acetamido) propanoic acid] | 1.6 | 0.6
CC(C)(C)c1cc(Br)cc([C@H](CC(=O)O)NC(=O)CNC(=O)c2cncc(NC(=N)N)c2)c1 [Example 6, (S)-3-(3-bromo-5-(tert-butyl)phenyl)-3-(2-(5-guanidinonicotinamido)acetamido) propanoic acid] | 2.2 | 0.5
CC(C)(C)c1cc(Br)cc([C@H](CC(=O)O)NC(=O)CNC(=O)c2cc(O)cc(NC3=NCC(O)CN3)c2)c1O (stereo partly drawn) [Example 2, (3S)-3-(5-bromo-3-(tert-butyl)-2-hydroxyphenyl)-3-(2-(3-hydroxy-5-((5-hydroxy-1,4,5,6-tetrahydropyrimidin-2-yl)amino)benzamido)acetamido)propanoic acid] | 1 | 0.7
CC(C)(O)c1cc([C@H](CC(=O)O)NC(=O)CNC(=O)c2cc(O)cc(NC3=NCC(O)CN3)c2)cc(C(F)(F)F)c1 (stereo partly drawn) [Example 13, (3S)-3-(2-(3-hydroxy-5-((5-hydroxy-1,4,5,6-tetrahydropyrimidin-2-yl)amino)benzamido)acetamido)-3-(3-(2-hydroxypropan-2-yl)-5-(trifluoromethyl)phenyl)propanoic acid] | 0.3 | 0.6
CC(C)(C)c1cc(C#N)cc([C@H](CC(=O)O)NC(=O)CNC(=O)c2cc(O)cc(NC3=NCC(O)CN3)c2)c1 (stereo partly drawn) [Example 12, (3S)-3-(3-(tert-butyl)-5-cyanophenyl)-3-(2-(3-hydroxy-5-((5-hydroxy-1,4,5,6-tetrahydro-pyrimidin-2-yl)amino)benzamido)acetamido)propanoic acid] | 0.2 | 0.4
CC(C)(C)c1cc(-c2cccnc2)cc([C@H](CC(=O)O)NC(=O)CNC(=O)c2cc(O)cc(NC3=NCC(O)CN3)c2)c1 (stereo partly drawn) [Example 18, (3S)-3-(3-(tert-butyl)-5-(pyridin-3-yl)phenyl)-3-(2-(3-hydroxy-5-((5-hydroxy-1,4,5,6-tetrahydropyrimidin-2-yl)amino)benzamido)acetamido)propanoic acid] | 21 | 0.6
O=C(O)C[C@H](NC(=O)CNC(=O)c1cc(O)cc(NC2=NCC(O)CN2)c1)c1cc(Cl)cc(C2(CO)CCOCC2)c1 (stereo partly drawn) [Example 17, (3S)-3-(3-chloro-5-(4-(hydroxymethyl)tetrahydro-2H-pyran-4-yl)phenyl)-3-(2-(3-hydroxy-5-((5-hydroxy-1,4,5,6-tetrahydropyrimidin-2-yl)amino)benzamido)acetamido)propanoic acid] | 0.5 | 0.5
CC(C)(C)c1cc(Br)cc([C@H](CC(=O)O)NC(=O)CNC(=O)c2cc(O)cc(NC3=NCCN3)c2)c1 [Example 9, (S)-3-(3-bromo-5-(tert-butyl)phenyl)-3-(2-(3-((4,5-dihydro-1H-imidazol-2-yl)amino)-5-hydroxybenzamido)acetamido)propanoic acid] | 1.2 | 0.5
CC(C)(O)c1cc(Br)cc([C@H](CC(=O)O)NC(=O)CNC(=O)c2cc(O)cc(NC3=NCC(O)CN3)c2)c1 (stereo partly drawn) [Example 3, (3S)-3-(3-bromo-5-(2-hydroxypropan-2-yl)phenyl)-3-(2-(3-hydroxy-5-((5-hydroxy-1,4,5,6-tetrahydropyrimidin-2-yl)amino)benzamido)acetamido)propanoic acid] | 0.7 | 0.7
CC(C)(CO)c1cc(Cl)cc([C@H](CC(=O)O)NC(=O)CNC(=O)c2cc(O)cc(NC3=NCC(O)CN3)c2)c1 (stereo partly drawn) [Example 15, (3S)-3-(3-chloro-5-(1-hydroxy-2-methylpropan-2-yl)phenyl)-3-(2-(3-hydroxy-5-((5-hydroxy-1,4,5,6-tetrahydropyrimidin-2-yl)amino)benzamido)acetamido)propanoic acid] | 0.4 | 0.4
CC(C)(C)c1cc([C@H](CC(=O)O)NC(=O)CNC(=O)c2cncc(NC(=N)N)c2)cc(C(C)(C)C)c1 [Example 10, (S)-3-(3,5-di-tert-butylphenyl)-3-(2-(5-guanidinonicotinamido)acetamido)propanoic acid] | 71 | 1.2
COCC1(c2cc(Cl)cc([C@H](CC(=O)O)NC(=O)CNC(=O)c3cc(O)cc(NC4=NCC(O)CN4)c3)c2)CCOCC1 (stereo partly drawn) [Example 16, (3S)-3-(3-chloro-5-(4-(Methoxymethyl)tetrahydro-2H-pyran-4-yl)phenyl)-3-(2-(3-hydroxy-5-((5-hydroxy-1,4,5,6-tetrahydropyrimidin-2-yl)amino)benzamido)acetamido)propanoic acid] | 0.6 | 0.5
CC(C)(C)c1cc(-c2cncnc2)cc([C@H](CC(=O)O)NC(=O)CNC(=O)c2cc(O)cc(NC3=NCC(O)CN3)c2)c1 (stereo partly drawn) [Example 19, (3S)-3-(3-(tert-butyl)-5-(pyrimidin-5-yl)phenyl)-3-(2-(3-hydroxy-5-((5-hydroxy-1,4,5,6-tetrahydropyrimidin-2-yl)amino)benzamido)acetamido)propanoic acid] | 21 | 0.7
CC(C)(C)c1cc(Br)c(O)c([C@H](CC(=O)O)NC(=O)CNC(=O)c2cc(O)cc(NC3=NCC(O)CN3)c2)c1 (stereo partly drawn) [Example 1, (3S)-3-(3-bromo-5-(tert-butyl)-2-hydroxyphenyl)-3-(2-(3-hydroxy-5-((5-hydroxy-1,4,5,6-tetrahydropyrimidin-2-yl)amino)benzamido)acetamido)propanoic acid] | 47 | 0.4
CC(C)(C)c1cc(Br)cc([C@H](CC(=O)O)NC(=O)CNC(=O)c2cccc(NC3=NCCN3)c2)c1 [Example 7, (S)-3-(3-bromo-5-(tert-butyl)phenyl)-3-(2-(3-((4,5-dihydro-1H-imidazol-2-yl)amino)benzamido)acetamido)propanoic acid] | 0.5 | 0.2
O=C(O)C[C@H](NC(=O)CNC(=O)c1cc(O)cc(NC2=NCC(O)CN2)c1)c1cc(Cl)cc(C2(CF)CCOCC2)c1 (stereo partly drawn) [Example 20, (3S)-3-(3-chloro-5-(4-(fluoromethyl)tetrahydro-2H-pyran-4-yl)phenyl)-3-(2-(3-hydroxy-5-((5-hydroxy-1,4,5,6-tetrahydropyrimidin-2-yl)amino)benzamido)acetamido)propanoic acid] | 0.5 | 1.4
COCC(C)(C)c1cc(Cl)cc([C@H](CC(=O)O)NC(=O)CNC(=O)c2cc(O)cc(NC3=NCC(O)CN3)c2)c1 (stereo partly drawn) [Example 14, (3S)-3-(3-chloro-5-(1-methoxy-2-methylpropan-2-yl)phenyl)-3-(2-(3-hydroxy-5-((5-hydroxy-1,4,5,6-tetrahydropyrimidin-2-yl)amino)benzamido)acetamido)propanoic acid] | 0.3 | 0.4
CC(C)(C)c1cc(Br)cc([C@H](CC(=O)O)NC(=O)CNC(=O)c2cncc(NC3=NCC(O)CN3)c2)c1 (stereo partly drawn) [Example 8, (3S)-3-(3-bromo-5-(tert-butyl)phenyl)-3-(2-(5-((5-hydroxy-1,4,5,6-tetrahydropyrimidin-2-yl)amino)nicotinamido)acetamido)propanoic acid] | 0.5 | 0.5
